Source: ChEMBL document CHEMBL4033701, “Cytotoxic triterpene diglycosides from the sea cucumber Stichopus horrens” (Bioorg Med Chem Lett, 2017)

Key:
Type in all cases: functional, cell-based
HepG2 = assay: Cytotoxicity against human HepG2 cells after 72 hrs by SRB assay; details: HepG2, 72 h
KB = assay: Cytotoxicity against human KB cells after 72 hrs by SRB assay
LNCaP = assay: Cytotoxicity against human LNCAP cells after 72 hrs by SRB assay
SK-MEL-2 = assay: Cytotoxicity against human SK-MEL-2 cells after 72 hrs by SRB assay; details: SK-MEL-2, 72 h
MCF7 = assay: Cytotoxicity against human MCF7 cells after 72 hrs by SRB assay; details: MCF7, 72 h

Compound | IC50 (HepG2) [µM] | IC50 (KB) [µM] | IC50 (LNCaP) [µM] | IC50 (SK-MEL-2) [µM] | IC50 (MCF7) [µM]
C=C(C)C[C@@H](C[C@]1(C)OC(=O)[C@]23CC[C@H]4C(=CC[C@H]5C(C)(C)[C@@H](O[C@@H]6OC[C@@H](O)[C@H](O)[C@H]6O[C@@H]6OC[C@@H](O)[C@H](O)[C@H]6O)CC[C@]45C)[C@]2(C)CC[C@@H]31)OC(C)=O | 1.92 | 2.36 | 3.13 | 2.27 | 2.11
C=C(C)CCC(O)[C@]1(C)OC(=O)[C@]23CC[C@H]4C(=CC[C@H]5C(C)(C)[C@@H](O[C@@H]6OC[C@@H](O)[C@H](O)[C@H]6O[C@@H]6O[C@H](CO)[C@@H](O)[C@H](O)[C@H]6O)CC[C@]45C)[C@]2(C)CC[C@H]13 (stereo partly drawn) | 37.9 | 33.5 | 51.6 | 43.5 | 41.9
CC(=O)O[C@@H](CC(C)C)C[C@]1(C)OC(=O)[C@]23CC[C@H]4C(=CC[C@H]5C(C)(C)[C@@H](O[C@@H]6OC[C@@H](O)[C@H](O)[C@H]6O[C@@H]6O[C@H](C)[C@@H](O)[C@H](O)[C@H]6O)CC[C@]45C)[C@]2(C)CC[C@@H]31 | 2.97 | 2.82 | 3.02 | 2.7 | 2.12
CC(=O)O[C@@H](CC(C)C)C[C@]1(C)OC(=O)[C@]23CC[C@H]4C(=CC[C@H]5C(C)(C)[C@@H](O[C@@H]6OC[C@@H](O)[C@H](O)[C@H]6O[C@@H]6OC[C@@H](O)[C@H](O)[C@H]6O)CC[C@]45C)[C@]2(C)CC[C@@H]31 | 2.04 | 3.11 | 2.7 | 2.21 | 2.08
C=C(C)CCC(O)[C@]1(C)OC(=O)[C@]23CC[C@H]4C(=CC[C@H]5C(C)(C)[C@@H](O[C@@H]6OC[C@@H](O)[C@H](O)[C@H]6O[C@@H]6O[C@H](CO)[C@@H](OS(=O)(=O)O)[C@H](O)[C@H]6O)CC[C@]45C)[C@]2(C)CC[C@H]13 (stereo partly drawn) | 55.3 | 45.4 | 51.5 | 67.2 | 59.5
CC(C)C[C@H](O)C[C@]1(C)OC(=O)[C@]23CC[C@H]4C(=CC[C@H]5C(C)(C)[C@@H](O[C@@H]6OC[C@@H](O)[C@H](O)[C@H]6O[C@@H]6OC[C@@H](O)[C@H](O)[C@H]6O)CC[C@]45C)[C@]2(C)CC[C@@H]31 | 53.8 | 48.4 | 59.3 | 41.9 | 52.2
CC(=O)O[C@@H](CC(C)C)C[C@]1(C)OC(=O)[C@]23CC[C@H]4C(=CC[C@H]5C(C)(C)[C@@H](O[C@@H]6OC[C@@H](O)[C@H](O)[C@H]6O[C@@H]6O[C@H](CO)[C@@H](O)[C@H](O)[C@H]6O)CC[C@]45C)[C@]2(C)CC[C@@H]31 | 5.28 | 8.86 | 7.6 | 5.77 | 6.36
C=C(C)C[C@@H](C[C@]1(C)OC(=O)[C@]23CC[C@H]4C(=CC[C@H]5C(C)(C)[C@@H](O[C@@H]6OC[C@@H](O)[C@H](O)[C@H]6O[C@@H]6O[C@H](CO)[C@@H](O)[C@H](O)[C@H]6O)CC[C@]45C)[C@]2(C)CC[C@@H]31)OC(C)=O | 7.03 | 11 | 10.1 | 10.8 | 7.25
Cc1c2ccncc2c(C)c2c1[nH]c1ccccc12 [ELLIPTECINE] |  | 1.79 | 1.95 | 1.91 | 
